This is an account of results in US6060608A, “Analogs of CC-1065 and the duocarmycins” (The Scripps Research Institute, priority 1999, dated 2000).

The subject of one data set is w794 duplex DNA. The experiment in a line: DNA alkylation selectivity and efficiency within w794 DNA, thermally-induced strand cleavage and PAGE. Type of data set: biochemical, SV40. Particulars: for DNA alkylation, failure to alkylate: 105-107: 37° C., 72 h, up to 10^-2 M, 108 and 110: 10^-3 M or lower. An excerpt:
DNA Alkylation Selectivity and Efficiency. The DNA alkylation properties of the agents were examined within w794 duplex DNA, a 144 base-pair segment of duplex DNA for which comparative results are available for related agents. The alkylation site identification and the assessment of the relative selectivity among the available sites were obtained by thermally-induced strand cleavage of the singly 5' end-labeled duplex DNA after exposure to the agents. Following treatment of the end-labeled duplex DNA with a range of agent concentrations, the unbound agent was removed by EtOH precipitation of the DNA. Redissolution of the DNA in aqueous buffer, thermolysis (100° C., 30 min) to induce strand cleavage at the sites of DNA alkylation, denaturing high resolution polyacrylamide gel electrophoresis (PAGE) adjacent to Sanger dideoxynucleotide sequencing standards, and autoradiography led to identification of the DNA cleavage and alkylation sites. The DNA alkylation reaction selectivities observed under the incubation conditions for the agents detailed herein have proven identical to the alkylation selectivities observed with shorter or extended reaction periods or when the reactions were conducted at different temperatures (37 or 4° C., 0.5-7 d). As discussed below, the rates and efficiencies but not final relative efficiencies of DNA alkylation were altered by changing the reaction temperatures.
DNA Alkylation Properties. […] The DNA alkylation reaction was examined within w794 DNA for which comparative results are available for past agents. The alkylation site identification was obtained by thermal strand cleavage of the singly 5' end-labeled duplex DNA after exposure to the agents. Following treatment of the labeled DNA with a range of agent concentrations, the unbound agent was removed by EtOH precipitation of the DNA. Redissolution of the DNA in aqueous buffer, thermolysis at 100° C. (30 min) to induce depurination and strand cleavage at the adenine N3 or guanine N3 minor groove alkylation sites, denaturing high resolution PAGE adjacent to Sanger sequencing standards and autoradiography provided the DNA cleavage and alkylation sites.
DNA Alkylation Studies: selectivity and Efficiency. General procedures, the preparation of singly ^32 P 5' end-labeled double stranded DNA, the agent binding studies, gel electrophoresis, and autoradiography were conducted according to standard procedures. Eppendorf tubes containing the 5' end-labeled DNA (9 μL) in TE buffer (10 mM Tris, 1 mM EDTA, pH 7.5) were treated with the agent in DMSO (1 μL at the specified concentration). The solution was mixed by vortexing and brief centrifugation and subsequently incubated at 4 or 25° C. for 24 h (natural enantiomers) and 25 or 37° C. (unnatural enantiomers) for 72 h. The covalently modified DNA was separated from unbound agent by EtOH precipitation and resuspended in TE buffer (10 μL). The solution of DNA in an Eppendorf tube sealed with parafilm was warmed at 100° C. for 30 min to induce cleavage at the alkylation sites, allowed to cool to 25° C. and centrifuged. Formamide dye (0.03% xylene cyanol FF, 0.03% bromophenol blue, 8.7% Na2 EDTA 250 mM) was added (5 μL) to the supernatant. Prior to electrophoresis, the sample was denatured by warming at 100° C. for 5 min, placed in an icebath, and centrifuged, and the supernatant (3 μL) was loaded directly onto the gel. Sanger dideoxynucleotide sequencing reactions were run as standards adjacent to the reaction samples. Polyacrylamide gel electrophoresis (PAGE) was run on an 8% sequencing gel under denaturing conditions (8 M urea) in TBE buffer (100 mM Tris, 100 mM boric acid, 0.2 mM Na2 EDTA) followed by autoradiography.
DNA Alkylation of w794 DNA. Eppendorf tubes containing the 5'-end labeled DNA (9 μL) in TE buffer (10 mM Tris, 1 mM EDTA, pH 7.2) were treated with the agent in DMSO (1 μL at the specified concentration). […]

For the next data set, the system named is calf thymus DNA. The experiment in a line: DNA alkylation of calf thymus DNA, recovery of unreacted agent. Type of data set: biochemical. As to conditions: 37° C., 48-72 h, 1:51 agent:base-pair ratio. As to the method: DNA Alkylation of Calf Thymus DNA. An aliquot of agent (5 μL, 0.01 M in DMSO) was added to a calf thymus DNA solution (0.45 mL, 3.79 mg/mL, 10 mM sodium phosphate, pH 7.0, base-pair:agent=51:1). The DNA-agent mixtures were incubated at 37° C. for 72 h for both enantiomers of 105, 106 and 107 or at 37° C. for 48 h for 108, 109, 110 and 111. For both enantiomers of 105, 106, 108 and 110, the unreacted materials were extracted with EtOAc (0.5 mL×4). The combined extracts were dried and dissolved in EtOAc (0.9 mL) and the quantities of 105, 106, 108, and 110 were determined by UV. Additional extraction with EtOAc (0.5 mL×4) was carried out, and the amounts of combined material were determined by UV. No additional material was recovered. For the ionic agents 107, 109 and 111, the unreacted materials were recovered from the supernatants of EtOH precipitation of the DNA. The EtOH in the supernatant was removed by a stream of N2. The supernatants were diluted to 0.9 mL with H2 O and the recovered quantities of 107, 109, and 111 were determined by UV.
These studies were conducted alongside control reactions conducted in the absence of DNA. An aliquot of agent (5 μL, 0.01 M in DMSO) was added to sodium phosphate buffer (0.45 mL, 10 mM, pH 7.0). The agent-buffer mixtures were incubated at 37° C. for 72 h for both enantiomers of 105, 106 and 107 or at 37° C. for 48 h for 108, 109, 110 and 111. For 105, 106, 108 and 110, the materials were extracted with EtOAc (0.5 mL×4). The combined extracts were dried and dissolved in EtOAc (0.9 mL) and the agent quantities were determined by UV. For the ionic agents 107, 109 and 111, the agent-buffer mixtures were diluted to 0.9 mL with H2 O and their quantities were determined by UV.

Data set [1] has as its system w794 DNA, 5'-AATTA high affinity site. The experiment in a line: Relative rate of DNA alkylation at the w794 5'-AATTA high affinity site. It is filed as biochemical, SV40. As to conditions: 10^-6 M, 25° C. As to the method: Rate of DNA Alkylation. The relative rates of DNA alkylation for the natural enantiommers of CCBI-TMI (35) and CCBI-indole2 (37) versus those of the corresponding CBI and MCBI agents were measured at the single high affinity site in w794, 5'-AATTA. The relative rates earlier studies of DNA alkylation for MCBI-TMI, CBI-TMI, and duocarmycin SA were determined to be quite similar at 4° C., 1.8:1.0:0.9, respectively. […] In prior studies, we have highlighted similar observations with agents that span a much larger range of relative reactivities.
The DNA alkylation selectivity and efficiency of the natural enantiomers of 304-307 were compared with that of 1 in w794 DNA. […] These trends in the overall efficiency of DNA alkylation parallel the relative trends in cytotoxic potency.
(§1) DNA Alkylation Relative Rate of (+)-CCBI-TMI (35), (+)-CBI-TMI, and (+)-MCBI-TMI. Following the procedure detailed above, Eppendorf tubes containing 5' end-labeled w794 DNA (9 μL) in TE buffer (pH 7.5) were treated with (+)-CCBI-TMI (35), (+)-CBI-TMI, or (+)-MCBI-TMI (1 μL, 10^-6 M in DMSO). The solutions were mixed and incubated at 25° C. for 2, 4, 6, 9, 12, 15, and 24 h, respectively. Subsequent isolation of the alkylated DNA by EtOH precipitation, resuspension in TE buffer (10 μL, pH 7.5), thermolysis (30 min, 100° C.), PAGE, and autoradiography were conducted as detailed above. Relative rates for alkylation at the w794 high-affinity 5'-AATTA site were derived from the slopes of the plots of percent integrated optical density (IOD) of the high-affinity alkylation cleavage bands versus time.
as §1, with “(+)-CCBI-indole2 (37), (+)-CBI-indole2,” for “(+)-CCBI-TMI (35), (+)-CBI-TMI,”, “(+)-MCBI-indole2.” for “(+)-MCBI-TMI.”, “(+)-CCBI-indole2 (37), (+)-CBI-indole2, and (+)-MCBI-indole2” for “(+)-CCBI-TMI (35), (+)-CBI-TMI, or (+)-MCBI-TMI”

Data set [2] has the same test system. As to conditions: 4° C., earlier studies, 1.8:1.0:0.9; cited from earlier work.
A further data set deals with L1210. The experiment in a line: In vitro cytotoxic activity, L1210. Particulars: L1210.

Values joined by “and” are separate entries in the source; they are usually repeats but may differ in a detail not shown here. Equal entries are not always repeated. “Also recorded” adds a separate entry of the source.

With `CSCCCNC(=O)c1csc(-c2csc(CCNC(=O)[C@@H](NC(=O)CCC(=O)N3CC(CCl)c4c3cc(O)c3ccccc43)[C@@H](C)O)n2)n1` (stereo partly drawn) [compound 110, 3-[2'-(2-((4-(1-Chloromethyl-5-hydroxy-1,2-dihydro-3H-benz[e]indol-3-yl)-1,4-dioxobutyl)-L-threonyl)aminoethyl)-2,4'-bithiazole-4-carboxamido]propyl Methyl Sulfide], the “DNA alkylation, failure to alkylate” value with w794 duplex DNA was “failed to alkylate DNA at concentrations of 10^-3 M or lower”. In the data set with calf thymus DNA, the “DNA alkylation of calf thymus DNA” value is “recovered nearly quantitatively”.
For the molecule `C[S+]([O-])CCCNC(=O)c1csc(-c2csc(CCNC(=O)C(=O)N3CC(CCl)c4c3cc(O)c3ccccc43)n2)n1` (centres unmarked) [compound 106, 3-[2'-(2-(2-(1-Chloromethyl-5-hydroxy-1,2-dihydro-3H-benz[e]indol-3-yl)-1,2-dioxoethyl)aminoethyl)-2,4'-bithiazole-4-carboxamido]propyl Methyl Sulfoxide], in the data set with calf thymus DNA, the “DNA alkylation of calf thymus DNA” value was “recovered nearly quantitatively”.
In the case of `CSCCCNC(=O)c1csc(-c2csc(CCNC(=O)CCC(=O)N3CC(CCl)c4c3cc(O)c3ccccc43)n2)n1` (centres unmarked) [compound 108, 3-[2'-(2-(2-(1-Chloromethyl-5-hydroxy-1,2-dihydro-3H-benz[e]indol-3-yl)-1,4-dioxobutyl)aminoethyl)-2,4'-bithiazole-4-carboxamido]propyl Methyl Sulfide], the “DNA alkylation, failure to alkylate” value in the data set on w794 duplex DNA is “failed to alkylate DNA at concentrations of 10^-3 M or lower; also recorded: no reaction is observed”. Moreover, in the data set with calf thymus DNA, the “DNA alkylation of calf thymus DNA” value was “recovered nearly quantitatively”.
On to `COc1cc2cc(C(=O)N3CC4CC45C3=CC(=O)c3ccccc35)[nH]c2c(OC)c1OC` (single isomer, unassigned) [CBI-TMI], for which the “relative rate of DNA alkylation, TMI series” value in data set [1] stood at 1.0 ×. Further, the “relative rate of DNA alkylation” value in data set [2] is 1.0.
Consider `C[S+](C)CCCNC(=O)c1csc(-c2csc(CCNC(=O)CCC(=O)N3CC(CCl)c4c3cc(O)c3ccccc43)n2)n1.[I-]` (centres unmarked) [compound 109, 3-[2'-(2-(4-(1-Chloromethyl-5-hydroxy-1,2-dihydro-3H-benz[e]indol-3-yl)-1,4-dioxobutyl)aminoethyl)-2,4'-bithiazole-4-carboxamido]propyl Dimethyl Sulfonium Iodide], for which, in the data set on w794 duplex DNA, the “DNA alkylation properties, comparison in words” value is recorded as “only slightly more effective than 116”; the “DNA alkylation sequence selectivity” value was 5'-AA, 5'-TA and identical to that of N-BOC-CBI (123) and 116. Moreover, the “DNA alkylation of calf thymus DNA” value with calf thymus DNA is on record as “perceptible covalent attachment to the calf thymus DNA”.
For `CSCCCNC(=O)c1csc(-c2csc(CCNC(=O)C(=O)N3CC(CCl)c4c3cc(O)c3ccccc43)n2)n1` (centres unmarked) [compound 105, 3-[2'-(2-(2-(1-Chloromethyl-5-hydroxy-1,2-dihydro-3H-benz[e]indol-3-yl)-1,2-dioxoethyl)aminoethyl)-2,4'-bithiazole-4-carboxamido]propyl Methyl Sulfide], in the data set on calf thymus DNA, the “DNA alkylation of calf thymus DNA” value was “recovered nearly quantitatively”. Moreover, the “cytotoxic potency in comparison with CBI building block or simple CBI derivatives” value in the data set on L1210 is reported as “approached the cytotoxic potency of 114”.
Consider `COc1ccc2c(c1)C13CC1CN(C(=O)c1cc4cc(OC)c(OC)c(OC)c4[nH]1)C3=CC2=O` (single isomer, unassigned) [MCBI-TMI], for which the “relative rate of DNA alkylation, TMI series” value in data set [1] worked out at 1.9 ×. Moreover, the “relative rate of DNA alkylation” value in data set [2] is 1.8.
For `C[C@@H](O)[C@H](NC(=O)CCC(=O)N1CC(CCl)c2c1cc(O)c1ccccc21)C(=O)NCCc1nc(-c2nc(C(=O)NCCC[S+](C)C)cs2)cs1` (stereo partly drawn) [compound 111, 3-[2'-(2-((4-(1-Chloromethyl-5-hydroxy-1,2-dihydro-3H-benz[e]indol-3-yl)-1,4-diooxobutyl)-L-threonyl)aminoethyl)-2,4'-bithiazole-4-carboxamido]propyl Dimethyl Sulfonium Iodide], in the data set with w794 duplex DNA, the “DNA alkylation properties, comparison in words” value is “only slightly more effective than 116”; the “DNA alkylation sequence selectivity” value was 5'-AA, 5'-TA and identical to that of N-BOC-CBI (123) and 116. The “DNA alkylation of calf thymus DNA” value in the data set with calf thymus DNA is recorded as “perceptible covalent attachment to the calf thymus DNA”.
